The results in this text go back to BindingDB's records for doi:10.1021/jm00065a012 (University of Toledo, 1993).

Assay [1] addresses High-affinity choline transporter 1 (Rattus norvegicus) (UniProt Q9JMD7). Nature of the assay: Inhibition constant of high-affinity choline uptake.
For assay [2] the target is unchanged. Nature of the assay: Inhibition of high affinity choline uptake at concentration of 1 uM.
Assay [3] is described as follows: Enzyme inhibition dissociation constant for choline acetyl transferase (ChAcT) was determined.

Each structure is given as a SMILES string.

High-affinity choline transporter 1 (Rattus norvegicus), sequence (Q9JMD7 whole entry, looked up): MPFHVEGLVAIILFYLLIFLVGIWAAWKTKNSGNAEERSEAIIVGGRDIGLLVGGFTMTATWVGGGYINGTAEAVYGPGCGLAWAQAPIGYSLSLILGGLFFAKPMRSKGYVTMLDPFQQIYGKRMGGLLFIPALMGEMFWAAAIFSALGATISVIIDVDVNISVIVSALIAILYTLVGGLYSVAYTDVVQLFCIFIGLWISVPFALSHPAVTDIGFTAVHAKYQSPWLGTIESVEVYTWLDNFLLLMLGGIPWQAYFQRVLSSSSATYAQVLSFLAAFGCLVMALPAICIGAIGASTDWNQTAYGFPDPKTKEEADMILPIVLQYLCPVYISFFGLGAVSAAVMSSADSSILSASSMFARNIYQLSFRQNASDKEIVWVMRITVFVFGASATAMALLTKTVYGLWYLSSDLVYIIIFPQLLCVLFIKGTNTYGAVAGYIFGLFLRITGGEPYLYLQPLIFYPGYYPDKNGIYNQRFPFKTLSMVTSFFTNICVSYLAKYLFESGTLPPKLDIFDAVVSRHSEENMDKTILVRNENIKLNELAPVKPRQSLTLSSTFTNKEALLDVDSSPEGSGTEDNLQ

As usually defined, the Ki is a dissociation constant, usually derived from enzyme kinetics or from competition with a known ligand. The IC50 is the concentration at which inhibition is half-maximal. The low end stands for higher potency, the high end for lower potency. As for `C[N+](C)(C)c1cccc(O)c1O` [(2,3-Dihydroxy-phenyl)-trimethyl-ammonium; iodide], the results for the Ki in assay [1] and in assay [3] were 60 µM and 15000 µM, respectively. Besides, the IC50 in assay [2] stood at 83 µM.
Regarding `C[N+](C)(C)CC(O)c1ccc(O)c(O)c1` (stereo not given) [[2-(3,4-Dihydroxy-phenyl)-2-hydroxy-ethyl]-trimethyl-ammonium; iodide], in assay [1], affinity was put at a Ki of 130 µM. In addition, the IC50 in assay [2] stood at 221 µM.
